In one experiment the test system is rat carotid artery. Conditions: cited from earlier work; for reduction of intimal hyperplasia / intimal area: treatment of rats, Pratt et al. 1992; for neointimal formation: similar model, Janiak et al. 1992, CGP 42112 infused perivascularly for 14 days, losartan at low doses.
The subject of the next experiment is water intake. Conditions: injected into the anterior diencephalon in the rat, Fitzsimons 1971; cited from earlier work.
Experiment [1] deals with blood pressure. The note with it: cited from earlier work.
The subject of experiment [2] is blood pressure. Conditions: intracerebroventricular infusion in the rat, concentrations 1,000 times higher than that of AII that increased blood pressure, Wright et al. 1989; cited from earlier work.
The subject of a further experiment is wound tissue. Conditions: application to wound tissue; cited from earlier work.
Experiment [3] has as its system full thickness dermal wounds. The experiment in a line: in vivo wound healing assay, full thickness dermal wounds in rats. Also on record: species or system Sprague Dawley rats. The note with it: 100 μg/wound in 10% carboxymethyl cellulose, daily for first five days; measured days 2, 4, 7 and 9. Here is the method: Analogs of angiotensin II and analogs of angiotensin II fragments having the structures disclosed herein were prepared using an automated peptide synthesizer and methods familiar to those having ordinary skill in the art. Each of the analogs was tested for its ability to accelerate wound healing according to the method described below. Results of procedures were used to determine the extent of wound closure at days 2, 4, 7 and 9, measured as a percentage of a vehicle-treated control wound. Since all of the analogs were not tested during the same experimental procedure, AII was included as a positive control for each group of peptides tested.
Female Sprague Dawley rats, 12 weeks old, were obtained from Simonsen Laboratories, Gilroy, Calif. On the day of surgery, the rats received intramuscular ketamine/rompum anesthesia prior to preparation for surgery. […] At days 2, 4, 7 and 9, the area of the skin wounds was measured under methoxyflurane anesthesia (commercially available as Metofane from Pittman-Moore, Mundelein, Ill.). The area of the wound was determined by (1) tracing the wound shape onto graph paper (1×1 mm squares); (2) cutting out the shape; (3) weighing the paper and comparing the weight with a 1.5×1.5 cm paper cutout; and (4) counting the number of squares. In addition, on days 2 and 4 the area of granulation tissue was similarly determined.

Turning to `Cc1cc(Cn2cnc3c2C[C@@H](C(=O)O)N(C(=O)C(c2ccccc2)c2ccccc2)C3)ccc1N(C)C` [PD 123319], the “reduction of intimal hyperplasia / intimal area” value in the experiment with rat carotid artery was 73%. Consider `CCCCc1nc(Cl)c(CO)n1Cc1ccc(-c2ccccc2-c2nn[nH]n2)cc1` [losartan], for which, in the experiment with rat carotid artery, the neointimal formation result is on record as “ineffective” and the “reduction of intimal hyperplasia / intimal area” value is reported as 95%.

“AII(1-4): AII fragment (DRVY; Angiotensin 2; UniProt P01019 25-28, looked up, fragment)”: the “effect on water intake” value in the experiment on water intake is “only a slight effect”.

Regarding “AII(1-7): fragment of AII (DRVYIHP; Angiotensin 2; UniProt P01019 25-31, looked up, fragment)”, the “amount needed for a comparable pressor response, relative to AII” value in the experiment with blood pressure [1] (Benter et al. 1993) is recorded as “about 10,000 times more AII(1-7) than AII”. Further, the “dose needed for effects on blood pressure (pressor), relative to AII” value in the experiment on blood pressure [1] (depending upon the model tested and route of administration) is listed as 10,000-100,000 times the dose of AII. In addition, the “effect on water intake” value in the experiment with water intake was “completely inactive”. For the compound “AII(5-8): AII fragment (IHPF; Angiotensin 2; UniProt P01019 29-32, looked up, fragment)”, the “effect on water intake” value with water intake is “only a slight effect”. For the same compound, the “effect on blood pressure” value in the experiment on blood pressure [2] is listed as “minimal effect”. Take “Asp-Arg-Val-Tyr-Ile-His-Pro-Phe (DRVYIHPF) [angiotensin II, positive control]”: in the experiment with wound tissue, the “rate of wound healing” value is “significantly increases”. Regarding CGP 42112, the neointimal formation result in the experiment on rat carotid artery is reported as “prevented neointimal formation”.

On to His-Pro-Phe [AII(6-8)], for which, in experiment [3], the “wound closure relative to vehicle-treated control wounds” value is given as “not to be effective”.

With Tyr-Ile-His-Pro-Phe (YIHPF) [AII(4-8)], the “wound closure relative to vehicle-treated control wounds” value in experiment [3] is “not to be effective”. For the same compound, the “effect on water intake” value in the experiment on water intake was “only a slight effect”. The “effect on blood pressure” value with blood pressure [2] is given as “minimal effect”.

Values taken from patent US7022675B2, “Wound healing compositions” (University of Southern California, priority 1997, dated 2006).
